Our source for the melting point, solubility and Solubility in water values is patent publication US6541425B1, “Retarding formulations of active substances used for plant protection” (priority 1998, dated 2003).

The term melting point denotes the temperature, or range, at which the solid turns liquid. As usually defined, the solubility is how much of the substance goes into solution per volume. A low value points to little dissolved substance.

≈ marks a conversion by molar mass, not a printed value.

Data set [1] is described as follows: Solubility in water of the active ingredients. It is filed as physicochemical. The settings on record: for solubility: water.

As to `CCC(C)OC(=N\OC)/C(C)=N/OCc1ccccc1/C(=N\OC)C(=O)NC` (centres unmarked) [Compound 2, N-methyl-2-[2-(2-sec-butoxy-2-(Z)-methoxyimino-1-methyl-(E)-ethylideneaminooxymethyl)phenyl]-2-(E)-methoxyiminoacetamide], the melting point was 48 to 50 °C. Further, the concentration in solution in data set [1] (solubility) came to 1190 µg/mL (≈ 3.03 mM).

Turning to `CNC(=O)/C(=N/OC)c1ccccc1CO/N=C(C)/C(=N/OC)C(/C)=N/OC` [Compound 4, N-methylphenyl-2-((3,4-[E]-bis(methoximino), 2-[E]-oximinopentyl)methyl)-alpha-[E]-methoximinoacetamide], the Solubility in water in data set [1] is 450 µg/mL (≈ 1.15 mM).

In data set [1], “N-methylphenyl-2-((3-[E]-methoxyimino, 5-methyl, 2-[E]-oximino-hex-4-en-yl)methyl)-alpha-[E]-methoximinoacetamide [Compound 5]” showed a Solubility in water of 58 µg/mL.

`CNC(=O)/C(=N/OC)c1ccccc1CO/N=C(C)/C(=N/OC)OCC(C)C` [Compound 3, N-methyl-2-[2-(2-isobutoxy-2-(Z)-methoxyimino-1-methyl-(E)-ethylideneaminooxymethyl)phenyl]-2-(E)-methoxyiminoacetamide] displayed a melting point of 68 °C. Also, in data set [1], the solubility was 500 µg/mL (≈ 1.27 mM).

On to `CNC(=O)/C(=N/OC)c1ccccc1CO/N=C(C)/C(=N/OC)OC(C)C` [Compound 1, N-methyl-2-[2-(2-isopropoxy-2-(Z)-methoxyimino-1-methyl-(E)-ethylideneaminooxymethyl)phenyl]-2-(E)-methoxyiminoacetamide], for which the melting point came out at 57 °C. Besides, the solubility in data set [1] is 1340 µg/mL (≈ 3.54 mM).
